Oligonucleotides are written 5' to 3', each unit as a sugar letter and its base; * is a phosphorothioate linkage, no mark a phosphodiester; rarer units and linkages stand in square brackets, end groups in braces. Plain capitals give the bases only. e = 2'-O-(2-methoxyethyl) (MOE); [5mC] = 5-methylcytosine; d = 2'-deoxy (DNA)
Columns and labels:
Format in all cases: in vivo, mouse
[1] = system: Mevalonate (diphospho) decarboxylase (Mvd) mRNA; experiment: PCR microarray analysis of liver, LDLr-/- mice: Mvd; details: 6 weeks
Procedure: (§1) Four groups of five male mice each were injected with a total of 1.5, 5, 15, or 50 mg/kg/week of ISIS 447118 for 6 weeks. A group of five mice was injected with a total of 50 mg/kg/week of control oligonucleotide ISIS 141923 ([…], designated herein as SEQ ID NO: 112, which has no known murine target) for 6 weeks. A control group of five mice was injected with phosphate buffered saline (PBS) twice a week for 6 weeks. Plasma samples were obtained before the start of treatment, at week 3 and at week 6. At the end of the treatment period, the mice were euthanized. Plasma and tissue samples were obtained for further analysis.
(§2) Liver samples from the mice groups were analyzed using a commercial kit for PCR microarray analysis (SA Biosciences Corp., MD), according to the manufacturer's instructions. Genes involved in lipoprotein and cholesterol metabolism were compared with the PBS control.

[2] = system: Proprotein convertase subtilisin/kexin type 9 (Pcsk9) mRNA; experiment: PCR microarray analysis of liver, LDLr-/- mice: Pcsk9; details: 6 weeks
Procedure: as §1, §2

[3] = system: Apolipoprotein A-IV (ApoA4) mRNA; experiment: PCR microarray analysis of liver, LDLr-/- mice: ApoA4; details: 6 weeks
Procedure: as §1, §2

[4] = system: Low density lipoprotein receptor (Ldlr) mRNA; experiment: PCR microarray analysis of liver, LDLr-/- mice: Ldlr; details: 6 weeks
Procedure: as §1, §2

[5] = system: Insulin induced gene 1 (Insig1) mRNA; experiment: PCR microarray analysis of liver, LDLr-/- mice: Insig1; details: 6 weeks
Procedure: as §1, §2

[6] = system: Sterol O-acyltransferase 2 (Soat2) mRNA; experiment: PCR microarray analysis of liver, LDLr-/- mice: Soat2; details: 6 weeks
Procedure: as §1, §2

[7] = Plasma cholesterol and triglycerides in LDLr-/- mice
Procedure: The LDLr knockout mice model is a model for familial hypercholesterolemia developed by Ishibashi et al (J Clin Invest 1993; 92: 883-893). On a normal chow diet, the mice have an average total cholesterol of 250 mg/dL due to increases in LDL and VLDL cholesterol. This model is therefore highly susceptible to atherosclerosis (Ishibashi et al Proc Natl Acad Sci USA 1994; 91: 4431-4435).
as §1
To investigate the effect of inhibition of TTC39B on triglycerides and cholesterol levels in the plasma, samples were collected on weeks 0, 3, and 6, and total plasma cholesterol, LDL cholesterol, HDL cholesterol, and triglycerides were analyzed on an Olympus AU400e Analyzer.

[8] = system: Oxysterol binding protein-like 5 (Osbpl5) mRNA; experiment: PCR microarray analysis of liver, LDLr-/- mice: Osbpl5; details: 6 weeks
Procedure: as §1, §2

[9] = system: Stabilin 1 (Stab1) mRNA; experiment: PCR microarray analysis of liver, LDLr-/- mice: Stab1; details: 6 weeks
Procedure: as §1, §2

[10] = 1.5 mg/kg/week, Week 0 (before treatment)
[11] = 5 mg/kg/week, Week 0 (before treatment)
[12] = 15 mg/kg/week, Week 0 (before treatment)
[13] = 50 mg/kg/week, Week 0 (before treatment)

Question: Which “Mvd fold increase/decrease relative to PBS group” value ([1]; 1.5 mg/kg) does the source give for “GCAGCTCGATTCGGGCATGA (antisense eG*e[5mC]*eA*eG*e[5mC]*dT*d[5mC]*dG*dA*dT*dT*d[5mC]*dG*dG*dG*e[5mC]*eA*eT*eG*eA) [ISIS 447118]” here?
Answer: 0.81 fold

Question: What about the “Mvd fold increase/decrease relative to PBS group” value ([1]; 5 mg/kg) of the same sequence?
Answer: 0.7 fold

Question: What about the “Mvd fold increase/decrease relative to PBS group” value ([1]; 15 mg/kg) of the same sequence?
Answer: 0.56 fold

Question: And the “Mvd fold increase/decrease relative to PBS group” value ([1]; 50 mg/kg)?
Answer: 0.67 fold

Question: What about the “Pcsk9 fold increase/decrease relative to PBS group” value ([2]; 1.5 mg/kg) of the same sequence?
Answer: 0.83 fold

Question: What about the “Pcsk9 fold increase/decrease relative to PBS group” value ([2]; 5 mg/kg) of the same sequence?
Answer: 0.66 fold

Question: What about the “Pcsk9 fold increase/decrease relative to PBS group” value ([2]; 15 mg/kg) of the same sequence?
Answer: 0.4 fold

Question: And the “Pcsk9 fold increase/decrease relative to PBS group” value ([2]; 50 mg/kg)?
Answer: 0.23 fold

Question: What about the “ApoA4 fold increase/decrease relative to PBS group” value ([3]; 1.5 mg/kg) of the same sequence?
Answer: 1.26 fold

Question: What about the “ApoA4 fold increase/decrease relative to PBS group” value ([3]; 5 mg/kg) of the same sequence?
Answer: 1.38 fold

Question: What about the “ApoA4 fold increase/decrease relative to PBS group” value ([3]; 15 mg/kg) of the same sequence?
Answer: 1.76 fold

Question: What about the “ApoA4 fold increase/decrease relative to PBS group” value ([3]; 50 mg/kg) of the same sequence?
Answer: 2.7 fold

Question: What about the “Ldlr fold increase/decrease relative to PBS group” value ([4]; 1.5 mg/kg) of the same sequence?
Answer: 1.43 fold

Question: And the “Ldlr fold increase/decrease relative to PBS group” value ([4]; 5 mg/kg)?
Answer: 1.28 fold

Question: What about the “Ldlr fold increase/decrease relative to PBS group” value ([4]; 15 mg/kg) of the same sequence?
Answer: 1.79 fold

Question: What about the “Ldlr fold increase/decrease relative to PBS group” value ([4]; 50 mg/kg) of the same sequence?
Answer: 2.87 fold

Question: What about the “Insig1 fold increase/decrease relative to PBS group” value ([5]; 1.5 mg/kg) of the same sequence?
Answer: 0.96 fold

Question: What about the “Insig1 fold increase/decrease relative to PBS group” value ([5]; 5 mg/kg) of the same sequence?
Answer: 0.84 fold

Question: And the “Insig1 fold increase/decrease relative to PBS group” value ([5]; 15 mg/kg)?
Answer: 0.68 fold

Question: And the “Insig1 fold increase/decrease relative to PBS group” value ([5]; 50 mg/kg)?
Answer: 0.67 fold

Question: And the “Soat2 fold increase/decrease relative to PBS group” value ([6]; 1.5 mg/kg)?
Answer: 1.05 fold

Question: And the “Soat2 fold increase/decrease relative to PBS group” value ([6]; 5 mg/kg)?
Answer: 0.88 fold

Question: What about the “Soat2 fold increase/decrease relative to PBS group” value ([6]; 15 mg/kg) of the same sequence?
Answer: 1.36 fold

Question: What about the “Soat2 fold increase/decrease relative to PBS group” value ([6]; 50 mg/kg) of the same sequence?
Answer: 1.79 fold

Question: And the “HDL cholesterol % increase on week 6 (% change over baseline)” value ([7]; 1.5 mg/kg/week)?
Answer: 36%

Question: And the HDL cholesterol levels [7, 10]?
Answer: 75 mg/dL

Question: What about the LDL cholesterol levels [7, 10] of the same sequence?
Answer: 115 mg/dL

Question: And the total cholesterol levels [7, 10]?
Answer: 227 mg/dL

Question: And the triglyceride levels [7, 10]?
Answer: 126 mg/dL

Question: What about the HDL cholesterol levels ([7]; 1.5 mg/kg/week, Week 3) of the same sequence?
Answer: 71 mg/dL

Question: And the LDL cholesterol levels ([7]; 1.5 mg/kg/week, Week 3)?
Answer: 116 mg/dL

Question: And the total cholesterol levels ([7]; 1.5 mg/kg/week, Week 3)?
Answer: 217 mg/dL

Question: And the triglyceride levels ([7]; 1.5 mg/kg/week, Week 3)?
Answer: 107 mg/dL

Question: What about the HDL cholesterol levels ([7]; 1.5 mg/kg/week, Week 6) of the same sequence?
Answer: 101 mg/dL

Question: And the LDL cholesterol levels ([7]; 1.5 mg/kg/week, Week 6)?
Answer: 131 mg/dL

Question: What about the total cholesterol levels ([7]; 1.5 mg/kg/week, Week 6) of the same sequence?
Answer: 247 mg/dL

Question: And the triglyceride levels ([7]; 1.5 mg/kg/week, Week 6)?
Answer: 142 mg/dL

Question: What about the “HDL cholesterol % increase on week 6 (% change over baseline)” value ([7]; 5 mg/kg/week) of the same sequence?
Answer: 28%

Question: And the HDL cholesterol levels [7, 11]?
Answer: 88 mg/dL

Question: And the LDL cholesterol levels [7, 11]?
Answer: 112 mg/dL

Question: What about the total cholesterol levels [7, 11] of the same sequence?
Answer: 234 mg/dL

Question: What about the triglyceride levels [7, 11] of the same sequence?
Answer: 118 mg/dL

Question: What about the HDL cholesterol levels ([7]; 5 mg/kg/week, Week 3) of the same sequence?
Answer: 83 mg/dL

Question: And the LDL cholesterol levels ([7]; 5 mg/kg/week, Week 3)?
Answer: 120 mg/dL

Question: And the total cholesterol levels ([7]; 5 mg/kg/week, Week 3)?
Answer: 232 mg/dL

Question: And the triglyceride levels ([7]; 5 mg/kg/week, Week 3)?
Answer: 122 mg/dL

Question: What about the HDL cholesterol levels ([7]; 5 mg/kg/week, Week 6) of the same sequence?
Answer: 112 mg/dL

Question: What about the LDL cholesterol levels ([7]; 5 mg/kg/week, Week 6) of the same sequence?
Answer: 130 mg/dL

Question: And the total cholesterol levels ([7]; 5 mg/kg/week, Week 6)?
Answer: 261 mg/dL

Question: And the triglyceride levels ([7]; 5 mg/kg/week, Week 6)?
Answer: 149 mg/dL

Question: And the “HDL cholesterol % increase on week 6 (% change over baseline)” value ([7]; 15 mg/kg/week)?
Answer: 45%

Question: What about the HDL cholesterol levels [7, 12] of the same sequence?
Answer: 84 mg/dL

Question: What about the LDL cholesterol levels [7, 12] of the same sequence?
Answer: 122 mg/dL

Question: And the total cholesterol levels [7, 12]?
Answer: 239 mg/dL

Question: And the triglyceride levels [7, 12]?
Answer: 120 mg/dL

Question: And the HDL cholesterol levels ([7]; 15 mg/kg/week, Week 3)?
Answer: 82 mg/dL

Question: What about the LDL cholesterol levels ([7]; 15 mg/kg/week, Week 3) of the same sequence?
Answer: 133 mg/dL

Question: And the total cholesterol levels ([7]; 15 mg/kg/week, Week 3)?
Answer: 249 mg/dL

Question: What about the triglyceride levels ([7]; 15 mg/kg/week, Week 3) of the same sequence?
Answer: 126 mg/dL

Question: What about the HDL cholesterol levels ([7]; 15 mg/kg/week, Week 6) of the same sequence?
Answer: 122 mg/dL

Question: What about the LDL cholesterol levels ([7]; 15 mg/kg/week, Week 6) of the same sequence?
Answer: 158 mg/dL

Question: What about the total cholesterol levels ([7]; 15 mg/kg/week, Week 6) of the same sequence?
Answer: 294 mg/dL

Question: What about the triglyceride levels ([7]; 15 mg/kg/week, Week 6) of the same sequence?
Answer: 131 mg/dL

Question: What about the “HDL cholesterol % increase on week 6 (% change over baseline)” value ([7]; 50 mg/kg/week) of the same sequence?
Answer: 58%

Question: What about the HDL cholesterol levels [7, 13] of the same sequence?
Answer: 78 mg/dL

Question: What about the LDL cholesterol levels [7, 13] of the same sequence?
Answer: 99 mg/dL

Question: And the total cholesterol levels [7, 13]?
Answer: 207 mg/dL

Question: What about the triglyceride levels [7, 13] of the same sequence?
Answer: 98 mg/dL

Question: And the HDL cholesterol levels ([7]; 50 mg/kg/week, Week 3)?
Answer: 85 mg/dL

Question: And the LDL cholesterol levels ([7]; 50 mg/kg/week, Week 3)?
Answer: 111 mg/dL

Question: What about the total cholesterol levels ([7]; 50 mg/kg/week, Week 3) of the same sequence?
Answer: 224 mg/dL

Question: And the triglyceride levels ([7]; 50 mg/kg/week, Week 3)?
Answer: 96 mg/dL

Question: And the HDL cholesterol levels ([7]; 50 mg/kg/week, Week 6)?
Answer: 124 mg/dL

Question: And the LDL cholesterol levels ([7]; 50 mg/kg/week, Week 6)?
Answer: 146 mg/dL

Question: And the total cholesterol levels ([7]; 50 mg/kg/week, Week 6)?
Answer: 282 mg/dL

Question: What about the triglyceride levels ([7]; 50 mg/kg/week, Week 6) of the same sequence?
Answer: 115 mg/dL

Question: What about the “Osbpl5 fold increase/decrease relative to PBS group” value ([8]; 1.5 mg/kg) of the same sequence?
Answer: 1.7 fold

Question: What about the “Osbpl5 fold increase/decrease relative to PBS group” value ([8]; 5 mg/kg) of the same sequence?
Answer: 2.34 fold

Question: What about the “Osbpl5 fold increase/decrease relative to PBS group” value ([8]; 15 mg/kg) of the same sequence?
Answer: 3.11 fold

Question: And the “Osbpl5 fold increase/decrease relative to PBS group” value ([8]; 50 mg/kg)?
Answer: 2.11 fold

Question: What about the “Stab1 fold increase/decrease relative to PBS group” value ([9]; 1.5 mg/kg) of the same sequence?
Answer: 1.15 fold

Question: And the “Stab1 fold increase/decrease relative to PBS group” value ([9]; 5 mg/kg)?
Answer: 1.19 fold

Question: And the “Stab1 fold increase/decrease relative to PBS group” value ([9]; 15 mg/kg)?
Answer: 1.35 fold

Question: And the “Stab1 fold increase/decrease relative to PBS group” value ([9]; 50 mg/kg)?
Answer: 1.53 fold
